Results taken from patent US5559145A, “1,2,4-trioxane derivatives” (priority 1995, dated 1996).

Legend:
Onchocerca gutturosa [1] = assay: Activity against Onchocerca gutturosa assessed by motility (parasites, medium, serum, cells and test drugs); assay type: cell-based; parameters: reduction of motility: concentration or dose not given beside the values; conditions: with cells
Description: Testing in vitro against Onchocerca gutturosa is a valid model for activity against Onchocerca volvulus.
(§1) Testing of test drugs (Compounds 1, 2, 3, 4, 5, 7, 8, 9, 11, and 12 of Table 1 ) against the parasitic worms Onchocerca gutturosa was carried out in accordance with the method described in J Helminth (1987) 60, 271, firstly using parasites, medium, serum, cells and test drugs.

T. gondii [2] = assay: Activity against T. gondii within HeLa cells, assessed by light microscopy; assay type: cell-based, Toxoplasma gondii (in HeLa (ATCC CCL2) cells); conditions: for Mean T. gondii per infected vacuole: HeLa (no drug: 8.1); for % infected cells: HeLa (no drug: 49); for T. gondii per 100 cells: HeLa (no drug: 620); for block of parasite growth: in words, HeLa cells
Description: Confluent epithelium-like HeLa (ATCC CCL2) cell monolayers growing on 6-well plastic multidish (9.6 cm^2, Nunc, Roskilde, Denmark) were used. After washing with HBSS, the monolayers were infected with 3×10^6 ml^-1 T. gondii in M199-3% FCS (total amount per well, 3 ml) for 1 h, washed twice with HBSS, and the drugs were added with M199-10% FCS over 22 h. Monolayers were then fixed, Giemsa-stained and-assessed by light microscopy.

T. gondii [3] = assay: Activity against T. gondii within macrophages, assessed by light microscopy; assay type: cell-based, Toxoplasma gondii (in murine peritoneal macrophages); parameters: % infected cells / Mean T. gondii per infected vacuole / T. gondii per 100 cells: dose or concentration left out as unconfirmed; conditions: for Mean T. gondii per infected vacuole: macrophages (no drug: 4.3); for % infected cells: macrophages (no drug: 42); for T. gondii per 100 cells: macrophages (no drug: 191); for activity compared with pyrimethamine and pyrimethamine + sulfadiazine / inhibition of the intracellular growth of toxoplasma: in words, at respective IC90 values
Description: Unelicited murine peritoneal macrophages obtained by washing the peritoneal cavities of Swiss-Webster mice with 3 ml of Hanks' Balanced Salt Solution (HBSS) (4° C.) containing 5 U ml of heparin were purified by centrifugation in Ficoll-Paque (Pharmacia) 500×g for 15 min, pooled and suspended in medium 199 (M199) containing 10% heat-inactivated (56° C. for 60 min) fetal calf serum (FCS). An amount of […] was seeded into each well of 96-well dishes (Costar) and allowed to adhere during 2-3 h at 37° C. in an 5% CO2 -95% air atmosphere. The nonadherent cells were removed by washing twice with prewarmed HBSS and challenged with 3 ×10 tachyzoites of the RG strain of […] in M199-3% FCS for 1 h. After washing twice with HBSS, the infected monolayers received the test drugs (Compounds 1 to 10 of Table 1) at various concentrations in M199-10% FCS. The monolayers were then pulsed with […] of [3H]uracil (Amersham) during a period of 18 h. The acid-precipitable radioactivity on each well was counted by using a filtration procedure and the IC90 was calculated by probit analysis.
2×10^6 of the macrophage cells were seeded into each chamber of four-chamber glass slides (Lab-Tek). After removing nonadherent cells with HBSS, the monolayers were infected with 2×10^6 T. gondii for 1 h followed by addition of the drugs with the media over 18 h. Monolayers were fixed with 0.4% 9-aminoacridine (50% ethanol-water vol/vol), Giemsa-stained, and assessed by light microscopy. The results are shown in the following Table 6, including results of control compounds: […]

Onchocerca gutturosa [4] = assay: Activity against Onchocerca gutturosa assessed by motility (parasites, medium and drug); assay type: cell-based; conditions: for motility / effect on worm motility: without cells; for effect on worm motility: in words
Description: as §1
Secondly, test drugs (Compounds 2, 3, 4, 7,. 8, 9 and 12 of Table 1) were tested using parasites, medium and drug. […] Under these conditions, commercial anti-helminthic drugs and artemisinin also cut motility by some 30-40%.

[5] = test system: in vitro mitogenic assay; mixed lymphocyte reaction; assay: Immunomodulatory activity (in vitro mitogenic assay; mixed lymphocyte reaction); assay type: cell-based; conditions: in words
Description: Several of the compounds mentioned in Examples 1 to 17 were also tested for immunomodulatory activity (in vitro mitogenic assay; mixed lymphocyte reaction).

Onchocerca gutturosa [6] = assay: Activity against Onchocerca gutturosa, tetrazolium colorimetric test (parasites, medium, cells and test drug); assay type: cell-based; conditions: with cells; for inhibition at 50 µM: Onchocerca gutturosa, 5×10^-5 M, read-out: inhibition of formazan formation
Description: (§2) A suitable colorimetric assay uses formation of formazan, a blue dye, from tetrazolium cation generated by 3-[…] bromide (J Helminth (1987) 60, 271). Firstly, Compounds 1, 2, 4, 5, 7, 8, 9, 11 and 12, along with artemisinin and arteether were tested using parasites, medium, cells and test drug.

Onchocerca gutturosa [7] = assay: Activity against Onchocerca gutturosa, tetrazolium colorimetric test (parasites, medium and test drugs); assay type: cell-based; conditions: without cells
Description: as §2
Secondly, Compounds 2, 3, 4, 7, 8, 9, and 12, artemisinin and arteether were tested using parasites, medium and test drugs.

[8] = test system: chloroquine-resistant strains of P. falciparum; conditions: in words; background, Science 228, 1049 (1985); cited from earlier work
[9] = in words, 7 days, after an induction period
[10] = in words, two to three days exposure

In the case of `C1=C(c2ccccc2)C[C@@]2(c3ccccc3)OOC3(CCCC3)O[C@@H]12` (relative stereo) [Compound 1 (Table 4)], the reduction of motility (Onchocerca gutturosa [1]; after 7 days) is reported as 100%, the “effect on worm motility” value (Onchocerca gutturosa [1]; [9]) is reported as “completely stopped morality” and the “Mean T. gondii per infected vacuole” value (T. gondii [2]; 6.8 mg ml^-1, 22 h) is reported as 1.8. The “% infected cells” value (T. gondii [2]; 6.8 mg ml^-1, 22 h) was 23%, the “T. gondii per 100 cells” value (T. gondii [2]; 6.8 mg ml^-1, 22 h) was 46 and the “block of parasite growth” value (T. gondii [2]) was “able to block parasite growth”. For the same compound, the “Mean T. gondii per infected vacuole” value (T. gondii [3]; 6.8, 18 h) was 1.6, the “% infected cells” value (T. gondii [3]; 6.8, 18 h) was 19% and the “T. gondii per 100 cells” value (T. gondii [3]; 6.8, 18 h) was 38. For the same compound, the “activity compared with pyrimethamine and pyrimethamine + sulfadiazine” value (T. gondii [3]) was “comparable to that of pyrimethamine, and pyrimethamine in combination with sulfadiazine” and the “inhibition of the intracellular growth of toxoplasma” value (from here on “inhibition … of toxoplasma”) (T. gondii [3]) was “confirmed the inhibition of the intracellular growth of toxoplasma”.
For `C1=C(c2ccccc2)C[C@@]2(c3ccccc3)OOC3(CCSCC3)O[C@@H]12` (relative stereo) [Compound 2 (Table 4)], the reduction of motility (Onchocerca gutturosa [1]; after 7 days) was 100%, the “effect on worm motility” value (Onchocerca gutturosa [1]; [10]) was “markedly inhibitory” and the “Mean T. gondii per infected vacuole” value (T. gondii [2]; 5.3 mg ml^-1, 22 h) was 1.3. For the same compound, the “% infected cells” value (T. gondii [2]; 5.3 mg ml^-1, 22 h) was 23%, the “T. gondii per 100 cells” value (T. gondii [2]; 5.3 mg ml^-1, 22 h) was 38 and the “block of parasite growth” value (T. gondii [2]) was “able to block parasite growth”. The “Mean T. gondii per infected vacuole” value (T. gondii [3]; 5.3, 18 h) was 1.2, the “% infected cells” value (T. gondii [3]; 5.3, 18 h) was 14% and the “T. gondii per 100 cells” value (T. gondii [3]; 5.3, 18 h) was 35. The “activity compared with pyrimethamine and pyrimethamine + sulfadiazine” value (T. gondii [3]) was “comparable to that of pyrimethamine, and pyrimethamine in combination with sulfadiazine”, the “inhibition … of toxoplasma” value (T. gondii [3]) was “confirmed the inhibition of the intracellular growth of toxoplasma” and the motility (Onchocerca gutturosa [4]; after 2-3 days) was “less than 1”.
With `C1=C(c2ccccc2)C[C@@]2(c3ccccc3)OOC3(CCOCC3)O[C@@H]12` (relative stereo) [Compound 3 (Table 4)] the “effectiveness in the motility test” value (Onchocerca gutturosa [1]; in words, overall) was “not so effective” and the “effect on worm motility” value (Onchocerca gutturosa [4]; after 2-3 days) was “performed poorly”.
In the case of `O=C1CCC2(CC1)OO[C@]1(c3ccccc3)CC(c3ccccc3)=C[C@@H]1O2` (relative stereo) [Compound 4 (Table 4)], the reduction of motility (Onchocerca gutturosa [1]; after 7 days) is reported as 100%, the “effect on worm motility” value (Onchocerca gutturosa [1]; in words, one day exposure) is reported as “significantly effective” and the “effect on worm motility” value (Onchocerca gutturosa [4]; after one day) is reported as “immediate response”.
In the case of `CC1(C)OO[C@]2(c3ccccc3)CC(c3ccccc3)=C[C@@H]2O1` (relative stereo) [Compound 5 (Table 4)], the reduction of motility (Onchocerca gutturosa [1]; after 7 days) is reported as 100% and the “effect on worm motility” value (Onchocerca gutturosa [1]; in words, one day exposure) is reported as “significantly effective”.
With `O=C1C(c2ccccc2)=C[C@@]2(c3ccccc3)OOC3(CCCCC3)O[C@@H]12` (relative stereo) [Compound 6 (Table 4)] the “Mean T. gondii per infected vacuole” value (T. gondii [3]; 54, 18 h) was 1.9, the “% infected cells” value (T. gondii [3]; 54, 18 h) was 20% and the “T. gondii per 100 cells” value (T. gondii [3]; 54, 18 h) was 43. The “activity compared with pyrimethamine and pyrimethamine + sulfadiazine” value (T. gondii [3]) was “comparable to that of pyrimethamine, and pyrimethamine in combination with sulfadiazine” and the “inhibition … of toxoplasma” value (T. gondii [3]) was “confirmed the inhibition of the intracellular growth of toxoplasma”.
For `CC1(C)OO[C@@]2(c3ccc(Cl)cc3)CC(c3ccc(Cl)cc3)=C[C@H]2O1` (relative stereo) [Compound 6], the immunomodulatory activity [5] was “most important activity”.
With `O[C@@H]1C(c2ccccc2)=C[C@@]2(c3ccccc3)OOC3(CCOCC3)O[C@@H]12` (relative stereo) [Compound 7 (Table 4)] the reduction of motility (Onchocerca gutturosa [1]; after 7 days) was 100%, the “effect on worm motility” value (Onchocerca gutturosa [1]; [9]) was “completely stopped morality” and the motility (Onchocerca gutturosa [4]; after 2-3 days) was “less than 1”.
For `O[C@@H]1C(c2ccccc2)=C[C@@]2(c3ccccc3)OOC3(CCCC3)O[C@@H]12` (relative stereo) [Compound 8 (Table 4)], the reduction of motility (Onchocerca gutturosa [1]; after 7 days) was 100%, the “effect on worm motility” value (Onchocerca gutturosa [1]; [10]) was “markedly inhibitory” and the “effect on worm motility” value (Onchocerca gutturosa [4]; after one day) was “immediate response”.
For `O[C@@H]1C(c2ccccc2)=C[C@@]2(c3ccccc3)OOC3(CCCCC3)O[C@@H]12` (relative stereo) [Compound 9 (Table 4)], the reduction of motility (Onchocerca gutturosa [1]; after 7 days) was 100%, the “effect on worm motility” value (Onchocerca gutturosa [1]; in words, one day exposure) was “immediately immobilized worms in less than a day” and the “effect on worm motility” value (Onchocerca gutturosa [1]; [10]) was “markedly inhibitory”. For the same compound, the “effect on worm motility” value (Onchocerca gutturosa [4]; after one day) was “immediate response” and the inhibition at 50 µM (Onchocerca gutturosa [6]) was over 90%.
With `Cc1ccc(C2=C[C@@]3(c4ccc(C)cc4)OOC4(CCCCC4)O[C@H]3C2=O)cc1` (relative stereo) [Compound 11 (Table 4)] the reduction of motility (Onchocerca gutturosa [1]; after 7 days) was 100%, the “effect on worm motility” value (Onchocerca gutturosa [1]; in words, one day exposure) was “significantly effective” and the inhibition at 50 µM (Onchocerca gutturosa [6]) was over 90%.
In the case of `CC1(C)OO[C@]2(c3ccccc3)CCC(c3ccccc3)=C[C@@H]2O1` (relative stereo) [Compound 12 (Table 4)], the reduction of motility (Onchocerca gutturosa [1]; after 7 days) is reported as 100%, the “effect on worm motility” value (Onchocerca gutturosa [1]; [10]) is reported as “markedly inhibitory” and the motility (Onchocerca gutturosa [4]; after 2-3 days) is reported as “less than 1”. For the same compound, the inhibition at 50 µM (Onchocerca gutturosa [6]) was over 90%.
For `C1=C(c2ccccc2)C[C@]2(c3ccccc3)OOC3(CCOCC3)O[C@H]12` (relative stereo) [Compound 12], the immunomodulatory activity [5] was “most important activity”.
With `CCc1nc(N)nc(N)c1-c1ccc(Cl)cc1` [P, pyrimethamine, reference compound] the “Mean T. gondii per infected vacuole” value (T. gondii [3]; 1, 18 h) was 1.2, the “% infected cells” value (T. gondii [3]; 1, 18 h) was 14% and the “T. gondii per 100 cells” value (T. gondii [3]; 1, 18 h) was 33.
With `CCO[C@H]1O[C@@H]2O[C@@]3(C)CC[C@H]4[C@H](C)CC[C@@H]([C@H]1C)[C@@]24OO3` [arteether, reference compound] the “inhibition of formazan formation” value (Onchocerca gutturosa [7]; in words) was “ineffective”, the reduction of motility (Onchocerca gutturosa [1]; after a day, 1440 min) was 30% and the motility (Onchocerca gutturosa [4]; after 4 days) was 4. The motility (Onchocerca gutturosa [4]; after 7 days) was 2 and the “inhibition of formazan formation” value (Onchocerca gutturosa [6]) was “about 40%”.
For `C[C@@H]1CC[C@H]2[C@@H](C)C(=O)O[C@@H]3O[C@@]4(C)CC[C@@H]1[C@]32OO4` [artemisinin, reference compound], the “inhibition of formazan formation” value (Onchocerca gutturosa [7]) is listed as “about 25%”, the “activity of Qinghaosu against chloroquine-resistant strains” value [8] is listed as “remarkably active” and the “effect on worm motility” value (Onchocerca gutturosa [1]; in words, one day exposure) is listed as “ineffective”. For the same compound, the reduction of motility (Onchocerca gutturosa [4]; without cells ("under these conditions")) was 30-40% and the “inhibition of formazan formation” value (Onchocerca gutturosa [6]; in words) was “ineffective”.
